Data on 28 compounds can be found in patent US20240425491A1, “HETEROARYL COMPOUNDS USEFUL IN THE TREATMENT OF COGNITIVE DISORDERS” (University College Cardiff Consultants Limited, priority 2021, published 2024).

pKi: −log10 of the molar value. Counter-ions that a name gives are not always drawn. Like-named read-outs stand apart in the source and are kept apart here.

The experiment has as its target T1, human recombinant GABAAR containing α5β3γ2 subunits (benzodiazepine site) (Homo sapiens, UniProt P18507+P31644).
T1 construct: expressed in transfected cells; host or cells: mouse L(tk−) cells, dexamethasone-inducible vector pMSGneo
Put plainly: In vitro radioligand binding assay (α5-GABAAR Ki). From the text: Mouse L(tk^−) cells stably expressing human α1β3γ2, α2β3γ2, α3β3γ2, α5β3γ2 GABAARs generated by transfection of the individual subunits in the dexamethasone-inducible expression vector pMSGneo in mouse L(tk^−) cells (Hadingham et al., 1993, Mol. Pharmacol. 43:970-975 and 1993, Mol. Pharmacol. 44:1211-1218) were used for binding and functional assays. For certain compounds, HEK293 cells stable expressing the human α1β3γ2L, α2β3γ2L, α3β3γ2L and α5β3γ2L GABAA receptors were used to evaluate their functional effects in a SyncroPatch electrophysiology assay.
L(tk^−) cells stably expressing human α1β3γ2, α2β3γ2, α3β3γ2, α5β3γ2 GABAARs were maintained in DMEM F12 medium supplemented with 10% Foetal Bovine Serum, 1% Penicillin/Streptomycin and 1 mg/mL Geneticin G418 in an incubator at 37° C. with a humidified atmosphere with 5% CO2.
The affinity (Ki) of compounds for the benzodiazepine site of human recombinant GABAARs was measured by their ability to inhibit the binding of the selective benzodiazepine antagonist [^3H] Ro15-1788 ([^3H] flumazenil).
L(tk^−) cells expressing human recombinant GABAAR containing α1β3γ2, α2β3γ2, α3β3γ2, α5β3γ2 subunits were harvested and membranes were prepared for each receptor combination in phosphate buffer (K2PO4 10 mM, pH 7.0) (Hadingham et al. (1992) Proc. Natl. Acad. Sci. USA; 89 (14): 6378-82). Protein concentration, receptor expression and the Kd of [^3H] Ro15-1788 were determined before Ki values of compounds were evaluated. For Kd evaluation, saturation binding curves were obtained by incubating membrane with various concentrations of [^3H] Ro15-1788 (82.5 Ci/mM), with nonspecific binding measured in the presence of 1 μM TP003.
For Ki evaluation, cell membranes were incubated with 4 nM [^3H] Ro15-1788 along with a range of concentrations of test compound. Nonspecific binding was determined using 1 μM TP003. All incubations were performed for 1 hour at 4° C. in assay buffer. The total assay volume was 0.5 mL, containing 100 μg membrane protein/well α1β3γ2, α2β3γ2, α3β3γ2 and 50 μg membrane protein/well for α53γ2. Incubations were terminated by filtration and washing with ice cold Tris-HCl buffer (50 mM, pH=7.4) over Whatman GF/B filters and the radioactivity of the filters was measured using liquid scintillation counting.
The % inhibition of [^3H] Ro15-1788 binding was plotted as a function of compound concentration and the IC50 calculated. From the IC50, the affinity (Ki) was calculated using the method of Cheng and Prusoff using the Kd values obtained for [^3H] Ro15-1788.

The mark [1] stands for this setting: inhibition of [3H]Ro15-1788 binding, membranes of L(tk−) cells expressing human α5β3γ2, read-out: α5-GABAAR Ki.

T1 sequence (P31644 32-462): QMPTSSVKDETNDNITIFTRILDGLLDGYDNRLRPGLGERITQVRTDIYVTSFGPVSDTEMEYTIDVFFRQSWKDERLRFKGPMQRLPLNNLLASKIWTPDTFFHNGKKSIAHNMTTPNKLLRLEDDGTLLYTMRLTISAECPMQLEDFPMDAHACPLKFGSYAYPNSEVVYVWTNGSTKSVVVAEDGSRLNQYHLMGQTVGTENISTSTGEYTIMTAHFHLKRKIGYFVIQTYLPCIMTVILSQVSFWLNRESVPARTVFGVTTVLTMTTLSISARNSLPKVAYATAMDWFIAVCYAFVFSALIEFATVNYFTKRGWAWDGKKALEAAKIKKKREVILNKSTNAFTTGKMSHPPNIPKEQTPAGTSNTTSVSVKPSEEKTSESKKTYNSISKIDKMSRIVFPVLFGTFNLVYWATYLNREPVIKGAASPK
T1 sequence (P28472 26-473 partner): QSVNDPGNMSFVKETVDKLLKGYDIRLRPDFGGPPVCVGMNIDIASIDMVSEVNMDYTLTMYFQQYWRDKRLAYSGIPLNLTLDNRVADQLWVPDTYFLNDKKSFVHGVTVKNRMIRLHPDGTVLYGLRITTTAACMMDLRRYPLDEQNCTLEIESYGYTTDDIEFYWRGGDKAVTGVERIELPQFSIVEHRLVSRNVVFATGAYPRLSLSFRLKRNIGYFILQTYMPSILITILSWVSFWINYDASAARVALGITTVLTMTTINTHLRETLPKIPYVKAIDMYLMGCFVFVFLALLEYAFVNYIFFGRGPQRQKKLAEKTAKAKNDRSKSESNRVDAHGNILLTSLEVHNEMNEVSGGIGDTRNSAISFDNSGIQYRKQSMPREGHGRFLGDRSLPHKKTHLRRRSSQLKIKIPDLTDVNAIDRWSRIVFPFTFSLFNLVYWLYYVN
T1 sequence (P18507 40-475): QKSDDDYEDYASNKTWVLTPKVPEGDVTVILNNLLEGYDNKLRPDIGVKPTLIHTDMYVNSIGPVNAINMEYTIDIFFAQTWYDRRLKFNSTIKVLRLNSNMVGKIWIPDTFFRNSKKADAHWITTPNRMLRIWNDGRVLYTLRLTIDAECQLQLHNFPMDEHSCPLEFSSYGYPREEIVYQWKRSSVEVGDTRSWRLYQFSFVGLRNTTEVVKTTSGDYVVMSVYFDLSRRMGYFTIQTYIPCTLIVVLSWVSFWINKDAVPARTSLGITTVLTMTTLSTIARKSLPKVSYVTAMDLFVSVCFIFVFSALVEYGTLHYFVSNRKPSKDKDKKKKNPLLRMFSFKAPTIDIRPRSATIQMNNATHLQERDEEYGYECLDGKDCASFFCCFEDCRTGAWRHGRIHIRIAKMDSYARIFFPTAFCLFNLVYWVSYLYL

What is called pKi is the negative decadic logarithm of the Ki, by convention in mol/L. For `COc1nc(-c2ccncn2)ccc1NC(=O)c1c(-c2ccccc2)noc1C` [Example 65, N-(2-Methoxy-6-pyrimidin-4-yl-3-pyridyl)-5-methyl-3-phenyl-isoxazole-4-carboxamide], the negative-log Ki (pKi) under setting [1] was 7.31.
`COc1nc(-c2nccs2)ccc1NC(=O)c1c(-c2ccccc2)noc1C` [Example 66, N-(2-Methoxy-6-thiazol-2-yl-3-pyridyl)-5-methyl-3-phenyl-isoxazole-4-carboxamide]: the negative logarithm of the Ki (pKi) under setting [1] was 6.63.
As to `COc1nc(-c2ccsn2)ccc1NC(=O)c1c(-c2ccccc2)noc1C` [Example 69, N-(6-Isothiazol-3-yl-2-methoxy-3-pyridyl)-5-methyl-3-phenyl-isoxazole-4-carboxamide], under setting [1], the pKi was 6.63.
Regarding `COc1nc(-c2ccccn2)ccc1NC(=O)c1c(-c2ccccc2)noc1C` [Example 73, N-[2-Methoxy-6-(2-pyridyl)-3-pyridyl]-5-methyl-3-phenyl-isoxazole-4-carboxamide], the negative-log Ki (pKi) under setting [1] is 6.81.
Same read-out and setting: the same measure for `COc1nc(-c2ccc(SC(F)(F)F)nc2)ccc1NC(=O)c1c(-c2ccccc2)noc1C` [Example 76, N-(6-Methoxy-6′-((trifluoromethyl)thio)-[2,3′-bipyridin]-5-yl)-5-methyl-3-phenyl-isoxazole-4-carboxamide]: 6.53.
Take `COc1nc(-c2ccc(OC(F)F)nc2)ccc1NC(=O)c1c(-c2ccccc2)noc1C` [Example 88, N-(6′-(Difluoromethoxy)-6-methoxy-[2,3′-bipyridin]-5-yl)-5-methyl-3-phenyl-isoxazole-4-carboxamide]: the negative-log Ki (pKi) under setting [1] was 7.58.
For `COc1nc(-c2cnc(N(C)C)c(Cl)c2)ccc1NC(=O)c1c(-c2ccccc2)noc1C` [Example 98, N-(5′-Chloro-6′-(dimethylamino)-6-methoxy-[2,3′-bipyridin]-5-yl)-5-methyl-3-phenylisoxazole-4-carboxamide], the pKi under setting [1] was 6.18.
The same measure, in the same setting: under `COc1nc(-c2nnn(C)c2C)ccc1NC(=O)c1c(-c2ccccc2)noc1C` [Example 101, N-(6-(1,5-Dimethyl-1H-1,2,3-triazol-4-yl)-2-methoxypyridin-3-yl)-5-methyl-3-phenylisoxazole-4-carboxamide] stands 7.35.
`COc1nc(-c2c[nH]c3ncccc23)ccc1NC(=O)c1c(-c2ccccc2)noc1C` [Example 105, N-(2-Methoxy-6-(1H-pyrrolo[2,3-b]pyridin-3-yl)pyridin-3-yl)-5-methyl-3-phenylisoxazole-4-carboxamide]: the pKi under setting [1] is 6.95.
Turning to `COc1cc2c(-c3ccc(NC(=O)c4c(-c5ccccc5)noc4C)c(OC)n3)cn(C)c2cn1` [Example 109, N-(2-Methoxy-6-(5-methoxy-1-methyl-1H-pyrrolo[2,3-c]pyridin-3-yl)pyridin-3-yl)-5-methyl-3-phenylisoxazole-4-carboxamide], the negative logarithm of the Ki (pKi) is 7.33.
Consider `COc1nc(-c2cnn3cccnc23)ccc1NC(=O)c1c(-c2ccccc2)noc1C` [Example 112, N-(2-Methoxy-6-(pyrazolo[1,5-a]pyrimidin-3-yl)pyridin-3-yl)-5-methyl-3-phenylisoxazole-4-carboxamide], for which, under setting [1], the negative-log Ki (pKi) was 7.09.
As for `COc1nc(-c2cnccn2)ccc1NC(=O)c1c(-c2ccccc2)noc1C` [Example 113, N-(2-Methoxy-6-(pyrazin-2-yl)pyridin-3-yl)-5-methyl-3-phenylisoxazole-4-carboxamide], under setting [1], the negative-log Ki (pKi) is 7.38.
Still for that read-out and setting: the same measure for `COc1nc(-c2cnc3c(c2)CC(=O)N3)ccc1NC(=O)c1c(-c2ccccc2)noc1C` [Example 114, N-(2-Methoxy-6-(2-oxo-2,3-dihydro-1H-pyrrolo[2,3-b]pyridin-5-yl)pyridin-3-yl)-5-methyl-3-phenylisoxazole-4-carboxamide]: 8.20.
Regarding `COc1nc(-c2cn(-c3nccs3)nc2C)ccc1NC(=O)c1c(-c2ccccc2)noc1C` [Example 115, N-(2-Methoxy-6-(3-methyl-1-(thiazol-2-yl)-1H-pyrazol-4-yl)pyridin-3-yl)-5-methyl-3-phenylisoxazole-4-carboxamide], the pKi under setting [1] is 7.00.
Regarding `COc1nc(-c2c[nH]c(=O)c(F)c2)ccc1NC(=O)c1c(-c2ccccc2)noc1C` [Example 116, N-(5′-Fluoro-6-methoxy-6′-oxo-1′,6′-dihydro-[2,3′-bipyridin]-5-yl)-5-methyl-3-phenylisoxazole-4-carboxamide], the negative logarithm of the Ki (pKi) under setting [1] is 8.54.
On to `COc1nc(-c2ccc3c(=O)[nH]ncc3c2)ccc1NC(=O)c1c(-c2ccccc2)noc1C` [Example 117, N-(2-Methoxy-6-(1-oxo-1,2-dihydrophthalazin-6-yl)pyridin-3-yl)-5-methyl-3-phenylisoxazole-4-carboxamide], for which the pKi under setting [1] is 8.59.
On to `COc1nc(-c2cnc3[nH]ccc3c2)ccc1NC(=O)c1c(-c2ccccc2)noc1C` [Example 118, N-(2-Methoxy-6-(1H-pyrrolo[2,3-b]pyridin-5-yl)pyridin-3-yl)-5-methyl-3-phenylisoxazole-4-carboxamide], for which the negative-log Ki (pKi) under setting [1] is 6.86.
Consider `COc1nc(-c2nn[nH]n2)ccc1NC(=O)c1c(-c2ccccc2)noc1C` [Example 122, N-[2-Methoxy-6-(2H-tetrazol-5-yl)-3-pyridyl]-5-methyl-3-phenyl-isoxazole-4-carboxamide], for which, under setting [1], the pKi is 6.90.
`CCOC(=O)Cn1c(-c2ccc(NC(=O)c3c(-c4ccccc4)noc3C)c(OC)n2)cnc1C` [Example 134, Ethyl 2-[5-[6-methoxy-5-[(5-methyl-3-phenyl-isoxazole-4-carbonyl)amino]-2-pyridyl]-2-methyl-imidazol-1-yl] acetate]: the pKi under setting [1] is 7.28.
On the same count and under the same terms, the same measure for `COc1nc(-n2ccnc2)ccc1NC(=O)c1c(-c2ccccn2)noc1C` [Example 146, N-(6-Imidazol-1-yl-2-methoxy-3-pyridyl)-5-methyl-3-(2-pyridyl) isoxazole-4-carboxamide]: 7.10; for `COc1nc(-c2cncnc2)ccc1NC(=O)c1c(C)nnn1-c1ccccc1` [Example 157, N-(2-Methoxy-6-(pyrimidin-5-yl)pyridin-3-yl)-4-methyl-1-phenyl-1H-1,2,3-triazole-5-carboxamide]: 7.34.
On to `COc1nc(-c2cncc(OC(F)F)c2)cnc1NC(=O)c1c(-c2ccccc2)noc1C` [Example 158, N-[5-[5-(Difluoromethoxy)-3-pyridyl]-3-methoxy-pyrazin-2-yl]-5-methyl-3-phenyl-isoxazole-4-carboxamide], for which the pKi under setting [1] was 8.08.
For `CNc1nc(-n2ccnc2)ccc1NC(=O)c1c(-c2ccccc2)noc1C` [Example 177, N-(6-(1H-Imidazol-1-yl)-2-(methylamino)pyridin-3-yl)-5-methyl-3-phenylisoxazole-4-carboxamide], the pKi under setting [1] is 6.26.
Take `COc1nc(-c2ccc(CN)cc2)ccc1NC(=O)c1c(-c2ccccc2)noc1C` [Example 182, N-[6-[4-(Aminomethyl)phenyl]-2-methoxy-3-pyridyl]-5-methyl-3-phenyl-isoxazole-4-carboxamide hydrochloride]: under setting [1], the pKi is 8.06.
In the case of `COc1ncc(-c2ccc(NC(=O)c3c(-c4ccccc4)noc3C)c(OC)n2)c(C)n1` [Example 191, N-[2-Methoxy-6-(2-methoxy-4-methyl-pyrimidin-5-yl)-3-pyridyl]-5-methyl-3-phenyl-isoxazole-4-carboxamide], under setting [1], the negative logarithm of the Ki (pKi) was 8.89.
Still for that read-out and setting: under `CNc1ncc(-c2ccc(NC(=O)c3c(-c4ccccc4)noc3C)c(OC)n2)c(C)n1` [Example 192, N-[2-Methoxy-6-[4-methyl-2-(methylamino)pyrimidin-5-yl]-3-pyridyl]-5-methyl-3-phenyl-isoxazole-4-carboxamide] stands 8.92; under `COc1nc(C)c(-c2ccc(NC(=O)c3c(-c4ccccc4)noc3C)c(OC)n2)c(C)n1` [Example 193, N-[2-Methoxy-6-(2-methoxy-4,6-dimethyl-pyrimidin-5-yl)-3-pyridyl]-5-methyl-3-phenyl-isoxazole-4-carboxamide], 7.64.
As for `CNc1nc(C)c(-c2ccc(NC(=O)c3c(-c4ccccc4)noc3C)c(OC)n2)c(C)n1` [Example 194, N-(6-(4,6-Dimethyl-2-(methylamino)pyrimidin-5-yl)-2-methoxypyridin-3-yl)-5-methyl-3-phenylisoxazole-4-carboxamide], the pKi under setting [1] was 7.41.
